According to article PMC7271668 (Frontiers in Pharmacology, 2020):
Where “and” joins values, the source holds several entries; their conditions need not be identical. Equal entries are not always repeated. Where two headings read alike, the source gives them in different places.

How the values were obtained:
human OAT3 [1] = molecular target: T1, human OAT3 (Homo sapiens, UniProt Q8TCC7); experiment: Inhibition of OAT3-mediated enalaprilat uptake in OAT3-transfected HEK293 cells
T1 sequence (Q8TCC7 1-542): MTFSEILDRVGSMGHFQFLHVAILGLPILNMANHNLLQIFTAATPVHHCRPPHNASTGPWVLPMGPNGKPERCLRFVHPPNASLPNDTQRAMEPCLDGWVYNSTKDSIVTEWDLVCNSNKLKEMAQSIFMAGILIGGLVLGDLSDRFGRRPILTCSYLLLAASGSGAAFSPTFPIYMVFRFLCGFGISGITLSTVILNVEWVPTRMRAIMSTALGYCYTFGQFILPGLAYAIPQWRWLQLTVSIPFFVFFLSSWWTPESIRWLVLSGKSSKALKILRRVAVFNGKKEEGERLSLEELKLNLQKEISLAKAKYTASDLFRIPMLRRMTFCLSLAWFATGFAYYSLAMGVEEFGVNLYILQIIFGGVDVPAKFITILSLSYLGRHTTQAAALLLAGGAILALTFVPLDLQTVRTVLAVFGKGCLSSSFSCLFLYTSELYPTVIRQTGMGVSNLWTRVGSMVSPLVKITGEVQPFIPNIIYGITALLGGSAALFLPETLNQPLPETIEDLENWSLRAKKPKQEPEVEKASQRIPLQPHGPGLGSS
Description: Because the present study examined a number of compounds with structural diversity, a 30 min preincubation was carried out for all compounds in order to eliminate inconsistencies. […] OAT3-transfected HEK293 cells or mock cells were washed thrice with pre-warmed HBSS and preincubated with HBSS containing different concentrations of inhibitors for 30 min at 37°C.
For sample preparation before analysis, 100 μl acetonitrile containing 500 nM tolbutamide (internal standard, IS) was added as a protein-precipitating agent to 50-μl cell samples. All samples were vortexed for 2 min and centrifuged at 13,000 rpm for 10 min. Ten microliters of the supernatants were transferred into injection vials for concentration determination.
The LC-MS/MS system consisted of an API 4000 Qtrap mass spectrometer equipped with a turbo-V ionization source (Applied Biosystems, Foster City, CA, USA), two LC-20AD pumps with a CBM-20A controller, a DGU-20A solvent degasser, and a SIL-20A autosampler (Shimadzu, Columbia, MD, USA). A reverse phase C18 column (50×2.1 mm, 5 µm particle size; Agela, China) and a gradient elution at 0.3 ml/min were employed for chromatographic separation. […] Analyst 1.6.3 (AB SCIEX, USA) was used to collect and process the data.
where I was the inhibitor concentration.

[2] = cited from earlier work; for Excreted into the urine, % of the dose: after oral administration of enalapril, MacFadyen et al., 1993
human OAT3 [3] = molecular target: T1, human OAT3; experiment: Enalaprilat uptake kinetics in HEK293 cells overexpressing human OAT3; type: in vitro ADME; design: expressed in transfected cells; gift of Prof; Dafang Zhong, Shanghai Institute of Materia Medica
Description: (§1) Human embryonic kidney 293 (HEK293) cells stably overexpressing human OAT1, OAT3, organic cation transporter 2 (OCT2), OATP1B1, OATP1B3 or OATP2B1 as well as empty vectors were generously provided by Professor Dafang Zhong, Shanghai Institute of Materia Medica, Chinese Academy of Sciences (Shanghai, China). Respective transport activities had been validated using specific probe substrates ([Zhong et al., 2014]). All cells were grown in DMEM supplemented with 10% FBS, at 37°C with 5% CO2 and 95% humidity.
(§2) Cells were seeded in 24-well plates at a density of 200,000 cells per well and cultured in high glucose DMEM for 48 h. On the third day and prior to the start of the uptake experiment, cells were washed thrice with pre-warmed HBSS and then incubated with HBSS for 30 min at 37°C. […] Incubations were terminated 5 min after the addition of substrate by washing with ice-cold HBSS. Cells were immediately lysed with 200 μl ultrapure water by repeated freezing and thawing up to three times. Intracellular drug concentrations were determined using a liquid chromatography - tandem mass spectrometry (LC-MS/MS) method. Cellular protein levels were estimated using the Bicinchoninine acid assay per manufacturer’s instruction (Takara, Japan).
(§3) Kinetic parameters of transporter-mediated uptake were estimated by nonlinear regression analysis using GraphPad Prism 5.01 (La Jolla, CA, USA). […]

human OAT1 = molecular target: T2, human OAT1 (Homo sapiens, UniProt Q4U2R8); experiment: Enalaprilat uptake kinetics in HEK293 cells overexpressing human OAT1; type: in vitro ADME; conditions: OAT1-transfected HEK293, net uptake (mock subtracted), enalaprilat 0-500 μM, 5 min incubation
T2 construct: expressed in transfected cells; gift of Prof; Dafang Zhong, Shanghai Institute of Materia Medica
T2 sequence (Q4U2R8 1-563): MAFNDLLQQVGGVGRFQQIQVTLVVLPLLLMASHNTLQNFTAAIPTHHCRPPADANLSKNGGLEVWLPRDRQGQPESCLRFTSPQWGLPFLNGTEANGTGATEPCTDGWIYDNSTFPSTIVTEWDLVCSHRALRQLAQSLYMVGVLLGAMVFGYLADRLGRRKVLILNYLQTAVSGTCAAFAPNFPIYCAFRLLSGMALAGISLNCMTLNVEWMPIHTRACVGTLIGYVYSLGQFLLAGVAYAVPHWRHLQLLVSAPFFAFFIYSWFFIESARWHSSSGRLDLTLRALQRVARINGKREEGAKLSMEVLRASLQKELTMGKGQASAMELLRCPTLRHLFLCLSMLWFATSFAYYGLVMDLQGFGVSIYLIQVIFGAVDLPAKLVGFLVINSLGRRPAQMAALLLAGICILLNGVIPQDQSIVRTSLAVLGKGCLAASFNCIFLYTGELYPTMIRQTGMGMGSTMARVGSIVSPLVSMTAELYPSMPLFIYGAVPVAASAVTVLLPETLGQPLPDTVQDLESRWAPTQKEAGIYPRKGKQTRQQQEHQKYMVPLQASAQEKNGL
Description: as §1, §2, §3

human OATP2B1 = molecular target: T3, human OATP2B1 (Homo sapiens, UniProt O94956); experiment: Enalaprilat uptake kinetics in HEK293 cells overexpressing human OATP2B1; type: in vitro ADME; conditions: OATP2B1-transfected HEK293, net uptake (mock subtracted), enalaprilat 0-500 μM, 5 min incubation
T3 construct: expressed in transfected cells; gift of Prof; Dafang Zhong, Shanghai Institute of Materia Medica
T3 sequence (O94956 1-709): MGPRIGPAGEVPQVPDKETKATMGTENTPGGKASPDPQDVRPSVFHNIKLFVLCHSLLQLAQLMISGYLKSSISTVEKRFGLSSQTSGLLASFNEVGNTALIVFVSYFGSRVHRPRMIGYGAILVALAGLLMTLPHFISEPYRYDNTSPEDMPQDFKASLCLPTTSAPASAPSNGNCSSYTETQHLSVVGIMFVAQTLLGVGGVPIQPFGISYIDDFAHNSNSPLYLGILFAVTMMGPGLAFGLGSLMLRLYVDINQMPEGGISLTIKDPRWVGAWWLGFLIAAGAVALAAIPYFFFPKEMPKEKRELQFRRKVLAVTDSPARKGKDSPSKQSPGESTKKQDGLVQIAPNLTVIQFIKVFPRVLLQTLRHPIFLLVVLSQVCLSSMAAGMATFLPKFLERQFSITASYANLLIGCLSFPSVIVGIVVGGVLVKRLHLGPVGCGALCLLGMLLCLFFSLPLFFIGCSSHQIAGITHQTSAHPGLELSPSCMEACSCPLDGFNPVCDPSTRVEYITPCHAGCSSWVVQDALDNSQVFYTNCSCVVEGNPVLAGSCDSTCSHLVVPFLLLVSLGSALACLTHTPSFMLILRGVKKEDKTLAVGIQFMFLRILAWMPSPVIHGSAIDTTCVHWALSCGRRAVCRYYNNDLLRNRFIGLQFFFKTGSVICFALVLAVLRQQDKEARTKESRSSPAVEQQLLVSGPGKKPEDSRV
Description: as §1, §2, §3

OAT1 = system: OAT1; design: method as in Tan et al., 2017; conditions: ref Tan et al., 2017; cited from earlier work
OAT4 = system: OAT4; design: method as in Tan et al., 2017; conditions: ref Tan et al., 2017; cited from earlier work
OAT3 = conditions: cited from earlier work
[4] = IC50, inhibition of enalaprilat uptake by selected drugs, HEK293-OAT3, enalaprilat 30 µM, 30 min preincubation, mean ± sd of three incubations

O=c1cc(-c2ccc(O)cc2)oc2cc(O)cc(O)c12 [Apigenin]
IC50 (human OAT3 [1]): 330 ± 90 nM

O=c1cc(-c2ccc(O)cc2)oc2cc(O[C@@H]3O[C@H](CO)[C@@H](O)[C@H](O)[C@H]3O)cc(O)c12 [Apigetrin]
IC50 (human OAT3 [1]): 7800 ± 4030 nM

CCc1oc2ccccc2c1C(=O)c1cc(Br)c(O)c(Br)c1 [Benzbromarone]
IC50 (human OAT3 [1]; [4]): 140 nM and < 1000 nM

O=c1cc(-c2ccccc2)oc2cc(O)cc(O)c12 [Chrysin]
IC50 (human OAT3 [1]): 44 ± 13 nM

O=c1c(-c2ccc(O)cc2)coc2cc(O)ccc12 [Daidzein]
IC50 (human OAT3 [1]): 5800 ± 3960 nM

CCOC(=O)[C@H](CCc1ccccc1)N[C@@H](C)C(=O)N1CCC[C@H]1C(=O)O [Enalapril]
Plasma exposure, fold lower than that of enalaprilat ([2]; after enalapril administration, ref Li et al., 2017): about 4.5 fold
Excreted into the urine, % of the dose ([2]; ref Ulm et al., 1982): 18 % of the dose
Fraction of the dose converted to enalaprilat ([2]; oral enalapril, dose 10 mg, man, ref Ulm et al., 1982): about 40%
Transport by OAT3 (substrate status) (human OAT3 [3]; OAT3-transfected HEK293, Supplementary Figure 1): could also be transported by OAT3

C[C@H](N[C@@H](CCc1ccccc1)C(=O)O)C(=O)N1CCC[C@H]1C(=O)O [Enalaprilat]
Vmax (human OAT1): 42.4 ± 1.3 nmol/min/mg protein
Vmax (human OATP2B1): 20.1 ± 2.7 nmol/min/mg protein
Excreted into the urine, % of the dose ([2]; ref Ulm et al., 1982): 43 % of the dose
Vmax (human OAT3 [3]; OAT3-transfected HEK293, net uptake (mock subtracted), enalaprilat 0-500 μM, 5 min incubation): 87.4 ± 1.1 nmol/min/mg protein

O=C1C[C@@H](c2ccc(O)c(O)c2)Oc2cc(O)cc(O)c21 [Eriodictyol]
IC50 (human OAT3 [1]): 1480 ± 600 nM

Cc1nc(-c2ccc(OCC(C)C)c(C#N)c2)sc1C(=O)O [Febuxostat]
IC50 (human OAT3 [1]; [4]): 410 ± 50 nM

O=c1c(O)c(-c2ccc(O)c(O)c2)oc2cc(O)ccc12 [Fisetin]
IC50 (human OAT3 [1]): 3820 ± 1600 nM

O=c1c(O)c(-c2ccccc2)oc2cc(O)cc(O)c12 [Galangin]
IC50 (human OAT3 [1]): 30 ± 26 nM

Cc1ccc(C)c(OCCCC(C)(C)C(=O)O)c1 [Gemfibrozil]
IC50 (human OAT3 [1]; [4]): 3500 ± 510 nM

CCC1=C(C)CN(C(=O)NCCc2ccc(S(=O)(=O)NC(=O)N[C@H]3CC[C@H](C)CC3)cc2)C1=O [Glimepiride]
IC50 (human OAT3 [1]; [4]): 370 ± 40 nM

O=c1c(O)c(-c2ccc(O)c(O)c2)oc2c(O)c(O)cc(O)c12 [Gossypetin]
IC50 (human OAT3 [1]): 710 ± 80 nM

O=c1c(O[C@@H]2O[C@H](CO)[C@@H](O)[C@H](O)[C@H]2O)c(-c2ccc(O)c(O)c2)oc2cc(O)cc(O)c12 [Isoquercetin]
IC50 (human OAT3 [1]): 11700 ± 2060 nM

O=c1c(O)c(-c2ccc(O)cc2)oc2cc(O)cc(O)c12 [Kaempferol]
IC50 (human OAT3 [1]): 88 ± 14 nM

O=C(O)CSc1nnc(Br)n1-c1ccc(C2CC2)c2ccccc12 [Lesinurad]
IC50 (human OAT3 [1]; [4]): 800 nM and < 1000 nM

O=c1cc(-c2ccc(O)c(O)c2)oc2cc(O)cc(O)c12 [Luteolin]
IC50 (human OAT3 [1]): 660 ± 110 nM

CC(C)=CCc1c(-c2ccc(O)cc2O)oc2c(CC=C(C)C)c(O)cc(O)c2c1=O [Mulberrin]
IC50 (human OAT3 [1]): 1220 ± 180 nM

O=c1c(O)c(-c2cc(O)c(O)c(O)c2)oc2cc(O)cc(O)c12 [Myricetin]
IC50 (human OAT3 [1]): 22600 ± 6860 nM

COc1c(O)cc2oc(-c3ccccc3)cc(=O)c2c1O [Oroxylin A]
IC50 (human OAT3 [1]): 220 ± 120 nM

O=c1c(O)c(-c2ccc(O)c(O)c2)oc2cc(O)cc(O)c12 [Quercetin]
IC50 (human OAT3 [1]): 750 ± 370 nM

CCOc1cc(CC(=O)N[C@@H](CC(C)C)c2ccccc2N2CCCCC2)ccc1C(=O)O [Repaglinide]
IC50 (human OAT3 [1]; [4]): 2100 ± 310 nM

O=C1C(CC[S+]([O-])c2ccccc2)C(=O)N(c2ccccc2)N1c1ccccc1 (centres unmarked) [Sulfinpyrazone]
IC50 (human OAT3 [1]; [4]): 950 ± 370 nM

O=C1c2c(O)cc(O)cc2OC(c2ccc(O)c(O)c2)C1O (centres unmarked) [Taxifolin]
IC50 (human OAT3 [1]): 7020 ± 3370 nM

CCCc1nc2c(C)cc(-c3nc4ccccc4n3C)cc2n1Cc1ccc(-c2ccccc2C(=O)O)cc1 [Telmisartan]
IC50 (human OAT3 [1]; [4]): 860 ± 220 nM

CCCCC(=O)N(Cc1ccc(-c2ccccc2-c2nnn[nH]2)cc1)[C@H](C(=O)O)C(C)C [Valsartan]
IC50 (human OAT3 [1]; [4]): 900 ± 90 nM

CC(C)(Sc1ccncc1-c1ccc(C#N)c2ccccc12)C(=O)O [Verinurad]
IC50 (human OAT3 [1]; [4]): 800 nM and < 1000 nM
Affinity for OAT1, fold lower as compared to URAT1 (OAT1): approximately 200 fold
Affinity for OAT4, fold lower as compared to URAT1 (OAT4): approximately 200 fold

COc1c(O)cc(O)c2c(=O)cc(-c3ccccc3)oc12 [Wogonin]
IC50 (human OAT3 [1]): 240 ± 40 nM

COc1c(O[C@@H]2O[C@H](C(=O)O)[C@@H](O)[C@H](O)[C@H]2O)cc(O)c2c(=O)cc(-c3ccccc3)oc12 [Wogonoside]
IC50 (human OAT3 [1]): 11700 ± 6290 nM

NNC(=O)c1ccncc1 [isoniazid]
Km (OAT3; read-out: Km as OAT3 substrate, ref Parvez et al., 2018): 234 µM

O=S(=O)(O)CCS [mesna]
Km (OAT3; read-out: Km as OAT3 substrate, ref Cutler et al., 2012): 390 µM

C=C1CC23CCC4C(C)(C(=O)OC5OC(C(=O)O)C(O)C(O)C5O)CCCC4(C)C2CCC1(O)C3 (centres unmarked) [steviol acyl glucuronide]
Km (OAT3): 368 µM
